Patent publication US7960435B2, “Anti-cancer agents and androgen inhibition activity compound” (University of Maryland, Baltimore, priority 2006, dated 2011)
Positions count from the first letter of the chain named. Where two headings read alike, the source gives them in different places.

Assays:
LNCaP cells = assay: Cell growth inhibition (MTT colorimetric assay), LNCaP; type: cell-based, human; details: for GI50: LNCaP (mutant AR), MTT, means of three experiments, called IC50, read-out: Cytotoxicity GI50 (nM) LNCaP
From the text: (§1) Lead optimization of BTB01434 and further biological studies: BTB01434 (Maybridge) was used as a lead molecule to synthesize new molecules. Although this compound was not as potent as some of the others (cf. Table 4), it was chosen for its ease of modification. New compounds (6-23) were developed using the diaryl sulfonamide compound BTB01434 (FIG. 6) as a scaffold. […] Including new BTB01434 analogs, including diaryl sulfonamide analogs bearing various substituents on the phenyl rings (series A), aryl amide analogs (series B), and amine analogs (series C). These new compounds were evaluated for cell growth inhibition in two human prostate cancer cell lines, (LNCaP and PC-3) by MTT assay. Based on the structures and anti-prostate cancer activities of the new compounds, a structure-activity relationship (SAR) was formulated.
Androgen-dependent LNCaP cells were obtained from American Type Culture Collection (Rockville, Md., USA). Cells were maintained in RPMI 1640 medium supplemented with 10% fetal bovine serum (Atlanta Biologicals, Lawrenceville, Ga., USA) and 1% penicillin/streptomycin. Cells were grown as a monolayer in T75 or T150 tissue culture flasks in a humidified incubator (5% CO2, 95% air) at 37° C.
(§2) LNCaP cells were seeded in 24 well plates (Corning Costar) at a density of 2×10^4 cells per well per 1 mL of medium. Cell were allowed to adhere to the plate for 24 hours and then treated with different concentrations of ARDAs dissolved in DMSO. Cells were treated for five days with renewal of ARDA and media on day 3. On the fifth day, medium was renewed and 100 μL of MTT (3-(4,5-dimethylthiazol-2-yl)-2,5-diphenyl-2H-tetrazolium bromide from Sigma) solution (0.5 mg MTT/mL of medium) was added to the medium such that the ratio of MTT:medium was 1:10. The cells were incubated with MTT for 2 hours. The medium was then aspirated and 500 μL of DMSO was added to solubilize the violet MTT-formazan product. The absorbance at 560 nm was measured by spectrophotometry (Victor 1420 multilabel counted, Wallac). For each concentration of ARDA there were triplicate wells in each independent experiment. IC50 values were calculated by nonlinear regression analysis using GraphPad Prism software.

PC-3 cells = assay: Cell growth inhibition (MTT assay), PC-3; type: cell-based, human; details: Homo sapiens, PC-3 (AR null), means of three experiments, called IC50, read-out: Cytotoxicity GI50 (nM) PC-3
From the text: as §1
Inhibition of prostate cancer cell proliferation and SAR: The exemplary compounds were then tested for their ability to inhibit cell viability in both the LNCaP (mutant AR) and PC-3 (AR null) cell lines (Table 5).
as §2

[1] = tested on: AR-mediated transcription (LNCaP-AR); assay: Luciferase transactivation assay in LNCaP cells transfected with ARR2-Luc; type: cell-based, human; details: for effect on luciferase activity, compound alone: without DHT
Protocol: FIG. 12. […] Cells in steroid-free medium were treated with vehicle, or increasing concentrations of either 9 or 11 with and without 5 nM DHT for 18 h. Cells were then assayed for luciferase activity using a know assay.^10
To determine if the compounds act as AR agonists or antagonists, androgen regulated transcriptional activation studies were performed in LNCaP cells transiently transfected with the probasin luciferase reported construct ARR2-Luc.
(§3) These assays were performed as previously described.^10

wild-type AR = biological target: T1, wild-type AR (Homo sapiens, UniProt P10275); assay: Competitive androgen receptor binding with [3H]-R1881 in PC-3-AR cells; details: PC-3-AR cells
T1 construct: expressed in transfected cells; host or cells: PC-3 (stably transfected, PC-3-AR)
T1 sequence (P10275 1-920): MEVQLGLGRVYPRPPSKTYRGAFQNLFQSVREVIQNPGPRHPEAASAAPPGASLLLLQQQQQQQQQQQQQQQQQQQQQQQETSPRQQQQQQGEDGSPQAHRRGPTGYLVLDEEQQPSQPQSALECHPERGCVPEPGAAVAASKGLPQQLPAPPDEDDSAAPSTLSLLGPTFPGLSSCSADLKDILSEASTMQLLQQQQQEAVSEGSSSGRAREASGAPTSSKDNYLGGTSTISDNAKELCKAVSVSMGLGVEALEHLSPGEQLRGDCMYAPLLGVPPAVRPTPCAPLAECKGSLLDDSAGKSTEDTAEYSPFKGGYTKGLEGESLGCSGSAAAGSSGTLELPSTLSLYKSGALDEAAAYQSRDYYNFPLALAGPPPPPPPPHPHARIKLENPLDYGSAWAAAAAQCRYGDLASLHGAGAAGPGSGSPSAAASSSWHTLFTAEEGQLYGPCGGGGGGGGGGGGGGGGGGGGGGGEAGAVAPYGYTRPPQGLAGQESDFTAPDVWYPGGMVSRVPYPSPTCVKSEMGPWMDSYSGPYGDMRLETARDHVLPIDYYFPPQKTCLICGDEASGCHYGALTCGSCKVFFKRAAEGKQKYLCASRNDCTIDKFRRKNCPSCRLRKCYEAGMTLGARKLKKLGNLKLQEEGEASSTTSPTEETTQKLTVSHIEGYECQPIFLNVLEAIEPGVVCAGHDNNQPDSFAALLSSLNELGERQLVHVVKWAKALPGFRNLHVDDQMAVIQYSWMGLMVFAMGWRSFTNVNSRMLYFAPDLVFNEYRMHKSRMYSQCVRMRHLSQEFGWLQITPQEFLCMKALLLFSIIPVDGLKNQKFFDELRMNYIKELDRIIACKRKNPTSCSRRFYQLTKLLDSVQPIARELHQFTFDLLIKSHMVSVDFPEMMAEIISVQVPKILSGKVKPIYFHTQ
Protocol: (§4) In both cell lines, compounds 9 and 11 were able to effectively compete with labeled R1881 in a dose-dependent fashion (FIG. 11). In PC-3-AR cells compound II reduced [^3H]-R1881 binding by 65% and 80% at 10 μM and 20 μM, respectively. […] Compound 9 reduced [^3H]-R1881 binding by 50% and 65% at 10 μM and 20 μM, respectively, and was equipotent in both cell lines.
as §3

mutated AR = biological target: T2, mutated AR (Homo sapiens, UniProt P10275, T878A); assay: Competitive androgen receptor binding with [3H]-R1881 in LNCaP cells
T2 construct: we utilized the LNCaP cell line which contains a mutant AR; host or cells: LNCaP
T2 sequence (P10275 1-920 T878A): T1 sequence (P10275 1-920) with T878A
Protocol: as §4, §3

Compound | GI50 (LNCaP cells; Homo sapiens, LNCaP) [nM] | GI50 (PC-3 cells) [nM] | effect on luciferase activity, compound alone ([1]; 0.1 μM) | reduction of luciferase expression in the presence of DHT ([1]; 10 μM, with 5 nM DHT) [%] | effect on luciferase activity, compound alone ([1]; 10 μM) | reduction of [3H]-R1881 binding (wild-type AR; 10 μM) [%] | reduction of [3H]-R1881 binding (wild-type AR; 20 μM) [%] | reduction of [3H]-R1881 binding (mutated AR; 10 μM) [%] | reduction of [3H]-R1881 binding (mutated AR; 20 μM) [%] | GI50 (LNCaP cells) [nM] | fold less potent than compound 8 (GI50) (LNCaP cells; LNCaP cells) [fold] | fold more potent than compound 6 (GI50) (LNCaP cells; LNCaP cells) [fold] | melting point [°C]
Cc1ccc(NS(=O)(=O)c2ccc(F)cc2)c([N+](=O)[O-])c1 [Compound 9, [(4-Fluorophenyl)sulfonyl](4-methyl-2-nitrophenyl)amine] | 2.34 | 850 | slight increase | 50 | did not increase | 50 | 65 | 50 | 65 | – | – | – | –
O=[N+]([O-])c1ccccc1NS(=O)(=O)c1ccccc1 [Compound 7, (2-Nitrophenyl)(phenylsulfonyl)amine] | 14.8 | 22900 | – | – | – | – | – | – | – | 14.1 | 5 | 5.6 | 102
